Experimental data reported in PubChem BioAssay (NCI).
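Each compound was tested at five concentrations against cells in 96-well plates for 48 hours. TGI is the concentration that stops growth completely.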

Experiments:
Experiment in all cases: NCI anticancer screen, dose series, 48 h
[1] = test system: OVCAR-8 ovarian
[2] = test system: DMS 114 small cell lung
[3] = test system: SR leukemia
[4] = test system: NCI-H460 lung
[5] = test system: HOP-18 NSCLC
[6] = test system: LOX IMVI melanoma
[7] = test system: IGROV1 ovarian
[8] = test system: LXFL 529 NSCLC
[9] = test system: MOLT-4 leukemia
[10] = test system: SK-MEL-28 melanoma
[11] = test system: ACHN renal
[12] = test system: XF 498 CNS
[13] = test system: HCT-15 colon
[14] = test system: HL-60(TB) leukemia
[15] = test system: CAKI-1 renal
[16] = test system: RXF 393 renal
[17] = test system: SK-MEL-5 melanoma
[18] = test system: M19-MEL melanoma
[19] = test system: RXF-631 renal
[20] = test system: NCI-H226 lung
[21] = test system: KM20L2 colon
[22] = test system: NCI-H522 lung
[23] = test system: SF-539 CNS
[24] = test system: CCRF-CEM leukemia
[25] = test system: SNB-75 CNS
[26] = test system: M14 melanoma
[27] = test system: A549 NSCLC
[28] = test system: OVCAR-4 ovarian
[29] = test system: HCC-2998 colon
[30] = test system: SNB-19 CNS
[31] = test system: EKVX NSCLC
[32] = test system: SF-295 CNS
[33] = test system: U251 CNS
[34] = test system: SK-OV-3 ovarian
[35] = test system: UACC-257 melanoma
[36] = test system: A498 renal
[37] = test system: OVCAR-5 ovarian
[38] = test system: UACC-62 melanoma
[39] = test system: RPMI-8226 leukemia
[40] = test system: DLD-1 colon
[41] = test system: OVCAR-3 ovarian
[42] = test system: COLO 205 colon
[43] = test system: HCT-116 colon
[44] = test system: K-562 leukemia
[45] = test system: DMS 273 small cell lung
[46] = test system: 786-0 renal
[47] = test system: HT29 colon
[48] = test system: MALME-3M melanoma
[49] = test system: SF-268 CNS
[50] = test system: HOP-62 NSCLC
[51] = test system: SN12C renal
[52] = test system: SW-620 colon
[53] = test system: NCI-H23 lung
[54] = test system: KM12 colon
[55] = test system: UO-31 renal
[56] = test system: HOP-92 NSCLC
[57] = test system: SNB-78 CNS
[58] = test system: SK-MEL-2 melanoma
[59] = test system: TK-10 renal

## CCCCOCc1cc(CN2CCN(C)CC2)c(O)c2ncccc12
[1]
  TGI: > 100 µM
[2]
  TGI: 23.9 µM
[3]
  TGI: 33.2 µM
[4]
  TGI: > 100 µM
[5]
  TGI: 39.9 µM
[6]
  TGI: > 100 µM
[7]
  TGI: 97.3 µM
[8]
  TGI: > 100 µM
[9]
  TGI: 77.2 µM
[10]
  TGI: > 100 µM
[11]
  TGI: 54.2 µM
[12]
  TGI: > 100 µM
[13]
  TGI: 33.7 µM
[14]
  TGI: 13.8 µM
[15]
  TGI: > 100 µM
[16]
  TGI: > 100 µM
[17]
  TGI: 26.8 µM
[18]
  TGI: > 100 µM
[19]
  TGI: > 100 µM
[20]
  TGI: 88.4 µM
[21]
  TGI: 73.7 µM
[22]
  TGI: > 100 µM
[23]
  TGI: 76.7 µM
[24]
  TGI: 30.2 µM
[25]
  TGI: > 100 µM
[26]
  TGI: 90 µM
[27]
  TGI: > 100 µM
[28]
  TGI: > 100 µM
[29]
  TGI: 90.2 µM
[30]
  TGI: > 100 µM
[31]
  TGI: > 100 µM
[32]
  TGI: 33.5 µM
[33]
  TGI: 44.4 µM
[34]
  TGI: > 100 µM
[35]
  TGI: > 100 µM
[36]
  TGI: 78.9 µM
[37]
  TGI: 95.8 µM
[38]
  TGI: 40.6 µM
[39]
  TGI: 26.3 µM
[40]
  TGI: > 100 µM
[41]
  TGI: > 100 µM
[42]
  TGI: > 100 µM
[43]
  TGI: 87 µM
[44]
  TGI: > 100 µM
[45]
  TGI: 40.2 µM
[46]
  TGI: 50.7 µM
[47]
  TGI: > 100 µM
[48]
  TGI: > 100 µM
[49]
  TGI: > 100 µM
[50]
  TGI: 41.8 µM
[51]
  TGI: > 100 µM
[52]
  TGI: 81.4 µM
[53]
  TGI: 47.6 µM
[54]
  TGI: > 100 µM
[55]
  TGI: 55.8 µM
[56]
  TGI: > 100 µM
[57]
  TGI: > 100 µM
[58]
  TGI: > 100 µM
[59]
  TGI: > 100 µM

## C#CC1(O)c2ccccc2C(=O)c2ccccc21
[1]
  TGI: > 100 µM
[3]
  TGI: > 100 µM
[4]
  TGI: > 100 µM
[5]
  TGI: > 100 µM
[6]
  TGI: > 100 µM
[7]
  TGI: > 100 µM
[8]
  TGI: > 100 µM
[9]
  TGI: > 100 µM
[10]
  TGI: > 100 µM
[11]
  TGI: > 100 µM
[12]
  TGI: > 100 µM
[14]
  TGI: > 100 µM
[15]
  TGI: > 100 µM
[16]
  TGI: > 100 µM
[18]
  TGI: > 100 µM
[20]
  TGI: > 100 µM
[21]
  TGI: > 100 µM
[22]
  TGI: > 100 µM
[23]
  TGI: > 100 µM
[24]
  TGI: > 100 µM
[27]
  TGI: > 100 µM
[28]
  TGI: > 100 µM
[29]
  TGI: > 100 µM
[30]
  TGI: > 100 µM
[31]
  TGI: > 100 µM
[32]
  TGI: > 100 µM
[33]
  TGI: > 100 µM
[35]
  TGI: > 100 µM
[36]
  TGI: > 100 µM
[37]
  TGI: > 100 µM
[42]
  TGI: > 100 µM
[43]
  TGI: > 100 µM
[44]
  TGI: > 100 µM
[45]
  TGI: > 100 µM
[46]
  TGI: > 100 µM
[47]
  TGI: > 100 µM
[48]
  TGI: > 100 µM
[49]
  TGI: > 100 µM
[50]
  TGI: > 100 µM
[51]
  TGI: > 100 µM
[52]
  TGI: > 100 µM
[53]
  TGI: > 100 µM
[54]
  TGI: > 100 µM
[56]
  TGI: 99.6 µM
[57]
  TGI: > 100 µM
[58]
  TGI: > 100 µM
[59]
  TGI: > 100 µM

## CC(CNCCCNCCNCCCNCO)[N+](=O)[O-] (configuration not stated)
[1]
  TGI: 27.9 µM
[2]
  TGI: 30.6 µM
[3]
  TGI: 28.4 µM
[4]
  TGI: 32.3 µM
[5]
  TGI: 28.3 µM
[6]
  TGI: 28.2 µM
[7]
  TGI: 44.3 µM
[8]
  TGI: 13.9 µM
[9]
  TGI: 30.4 µM
[10]
  TGI: 26.6 µM
[11]
  TGI: 30.3 µM
[12]
  TGI: 29.9 µM
[13]
  TGI: 23.2 µM
[14]
  TGI: 19.1 µM
[15]
  TGI: 18.6 µM
[16]
  TGI: 29.2 µM
[17]
  TGI: 29.9 µM
[19]
  TGI: 30.3 µM
[21]
  TGI: 31.7 µM
[23]
  TGI: 29.2 µM
[24]
  TGI: 11.5 µM
[25]
  TGI: 35.3 µM
[26]
  TGI: 23.6 µM
[27]
  TGI: 57 µM
[28]
  TGI: 27.9 µM
[29]
  TGI: 31 µM
[30]
  TGI: > 100 µM
[31]
  TGI: 29.9 µM
[32]
  TGI: > 100 µM
[33]
  TGI: 29.5 µM
[34]
  TGI: > 100 µM
[35]
  TGI: 26.1 µM
[36]
  TGI: 32.3 µM
[37]
  TGI: 26.8 µM
[38]
  TGI: 29.9 µM
[39]
  TGI: 35 µM
[40]
  TGI: 14.4 µM
[41]
  TGI: 30.4 µM
[42]
  TGI: 19.3 µM
[43]
  TGI: 22.7 µM
[44]
  TGI: 19.6 µM
[45]
  TGI: 32.4 µM
[46]
  TGI: 29.3 µM
[47]
  TGI: 41.7 µM
[48]
  TGI: 4.22 µM
[49]
  TGI: 29.6 µM
[50]
  TGI: > 100 µM
[51]
  TGI: 28.4 µM
[52]
  TGI: 12.2 µM
[53]
  TGI: 28.6 µM
[54]
  TGI: 29.7 µM
[55]
  TGI: 32.3 µM
[56]
  TGI: 8.57 µM
[57]
  TGI: 48.3 µM
[58]
  TGI: 29.4 µM
[59]
  TGI: 8.6 µM
